Laboratory results taken from paper PMC4406087, “Remaining challenges in cellular flavin cofactor homeostasis and flavoprotein biogenesis” (Frontiers in Chemistry, 2015).

What was measured:
6His-hFADS2 [1] = target: T1, 6His-hFADS2 (Homo sapiens, UniProt Q8NFF5); assay: spectrofluorimetric FAD synthesis assay, Dixon plot; assay type: biochemical; conditions: 50 mM Tris-HCl pH 7.5, 5 mM MgCl2, 37°C; product inhibition: competitive vs FMN, non-competitive vs ATP
T1 construct: gene FLAD1; recombinant 6His-tagged cytosolic isoform 2, purified

6His-hFADS2 [2] = target: T1, 6His-hFADS2; assay: flavin fluorescence of protein band on SDS-PAGE under UV; assay type: biochemical; conditions: tightly but not covalently bound, 1 mol FAD per monomer; fluorescence lost on transfer to apo-Me2GlyDH
6His-apo-Me2GlyDH = target: T2, 6His-apo-Me2GlyDH (Rattus norvegicus, UniProt Q63342); assay: as above; assay type: binding; conditions: covalent; 20 μM FAD, 50 mM Tris-HCl pH 7.5, 5 mM MgCl2, 5 mM ATP, 0.5% Triton X-100, 37°C; stimulated by rat liver mitochondrial matrix
T2 construct: gene Dmgdh; 6His-tagged, E. coli, purified apo-form
T2 sequence (Q63342 44-857): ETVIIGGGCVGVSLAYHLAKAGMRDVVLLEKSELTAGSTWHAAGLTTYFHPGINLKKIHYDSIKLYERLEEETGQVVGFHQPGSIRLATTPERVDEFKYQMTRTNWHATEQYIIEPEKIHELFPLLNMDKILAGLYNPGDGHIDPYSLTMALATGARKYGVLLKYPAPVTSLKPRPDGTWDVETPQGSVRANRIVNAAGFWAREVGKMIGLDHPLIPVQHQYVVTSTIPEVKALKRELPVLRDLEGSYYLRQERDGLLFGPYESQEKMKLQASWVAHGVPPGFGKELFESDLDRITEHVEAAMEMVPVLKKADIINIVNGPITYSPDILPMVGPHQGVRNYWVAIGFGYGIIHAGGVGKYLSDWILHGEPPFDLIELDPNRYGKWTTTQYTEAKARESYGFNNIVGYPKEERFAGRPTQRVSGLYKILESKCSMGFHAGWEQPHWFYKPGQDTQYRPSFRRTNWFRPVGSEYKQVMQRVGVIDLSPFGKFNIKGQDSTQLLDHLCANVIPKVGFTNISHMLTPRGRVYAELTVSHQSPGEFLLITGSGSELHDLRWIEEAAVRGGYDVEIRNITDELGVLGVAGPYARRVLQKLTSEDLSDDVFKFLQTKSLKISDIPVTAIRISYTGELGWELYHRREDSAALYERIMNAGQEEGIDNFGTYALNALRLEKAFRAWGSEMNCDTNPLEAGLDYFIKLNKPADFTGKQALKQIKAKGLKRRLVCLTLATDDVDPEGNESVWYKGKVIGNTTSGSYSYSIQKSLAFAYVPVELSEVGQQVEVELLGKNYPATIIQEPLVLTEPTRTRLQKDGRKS

T1 sequence (Q8NFF5 98-587 limits assumed): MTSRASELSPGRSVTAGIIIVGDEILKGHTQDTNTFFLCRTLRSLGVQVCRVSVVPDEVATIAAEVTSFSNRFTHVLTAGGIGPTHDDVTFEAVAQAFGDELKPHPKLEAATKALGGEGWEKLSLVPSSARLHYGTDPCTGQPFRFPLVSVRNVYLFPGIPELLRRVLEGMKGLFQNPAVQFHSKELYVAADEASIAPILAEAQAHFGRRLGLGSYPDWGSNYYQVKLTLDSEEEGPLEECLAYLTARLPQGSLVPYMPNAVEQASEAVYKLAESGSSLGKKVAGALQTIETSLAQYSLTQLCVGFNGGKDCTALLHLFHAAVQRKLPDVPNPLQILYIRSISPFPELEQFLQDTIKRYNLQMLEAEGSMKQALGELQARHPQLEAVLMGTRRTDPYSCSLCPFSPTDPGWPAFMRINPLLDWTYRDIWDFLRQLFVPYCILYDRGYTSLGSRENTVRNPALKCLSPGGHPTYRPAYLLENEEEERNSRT

| SMILES | spectrofluorimetric FAD synthesis assay, Dixon plot (6His-hFADS2 [1]) | flavin fluorescence of protein band on SDS-PAGE under UV (6His-hFADS2 [2]) | flavin fluorescence of protein band on SDS-PAGE under UV (6His-apo-Me2GlyDH) |
| --- | --- | --- | --- |
| O=P(O)(O)OP(=O)(O)O [PPi] | the inhibition by PPi against FMN is consistent with competitive inhibition |  |  |
| Cc1cc2nc3c(=O)[nH]c(=O)nc-3n(C[C@H](O)[C@H](O)[C@H](O)COP(=O)(O)OP(=O)(O)OC[C@H]3O[C@@H](n4cnc5c(N)ncnc54)[C@H](O)[C@@H]3O)c2cc1C [FAD] |  | hFADS loses its fluorescence upon incubation with apo-Me2GlyDH | mitochondrial matrix is able to stimulate apo-Me2GlyDH flavinylation |
